In patent publication US20050288273A1, “Antibacterial agents” (priority 2003, published 2005):
Values after ≈ are worked out from the molar mass of the structure shown.

What was measured:
E. faecalis EF-13524 = assay: Cross resistance antibacterial assay (MIC), strain 2; assay type: cell-based; conditions: Enterococcus faecalis, EF13524; E. faecalis EF-13524, vancomicin resistant strain; read-out: Minimum Inhibitory Concentrations in Strain 2
Source text: (§1) Test C—Cross Resistance Antibacterial Assay

E. faecalis EF-3838 = assay: Cross resistance antibacterial assay (MIC), strain 3; assay type: cell-based; conditions: Enterococcus faecalis, EF3838; E. faecalis EF-3838, multiple drug resistant (vancomicin, erythromycin, gentamicin); read-out: Minimum Inhibitory Concentrations in Strain 3
Source text: as §1

S. aureus SA-2017 = assay: Cross resistance antibacterial assay (MIC), strain 6; assay type: cell-based; conditions: Staphylococcus aureus, SA2017; S. aureus SA-2017, multiple drug resistant (methicillin, ciprofloxacin); read-out: Minimum Inhibitory Concentrations in Strain 6
Source text: as §1

S. aureus SA-3528 = assay: Cross resistance antibacterial assay (MIC), strain 7; assay type: cell-based; conditions: Staphylococcus aureus, SA3528; S. aureus SA-3528, multiple drug resistant (MLS); read-out: Minimum Inhibitory Concentrations in Strain 7
Source text: as §1

S. aureus SA-3839 = assay: Cross resistance antibacterial assay (MIC), strain 8; assay type: cell-based; conditions: Staphylococcus aureus, SA3839; S. aureus SA-3839, multiple drug resistant (linezolid and methicillin); read-out: Minimum Inhibitory Concentrations in Strain 8
Source text: as §1

S. aureus SA-3840 = assay: Cross resistance antibacterial assay (MIC), strain 9; assay type: cell-based; conditions: Staphylococcus aureus, SA3840; S. aureus SA-3840, multiple drug resistant (linezolid and methicillin); read-out: Minimum Inhibitory Concentrations in Strain 9
Source text: as §1

S. pneumoniae SP-3536 = assay: Cross resistance antibacterial assay (MIC), strain 10; assay type: cell-based; conditions: Streptococcus pneumoniae, SP3536; S. pneumoniae SP-3536, multiple drug resistant (B-lactamase and macrolide-R); read-out: Minimum Inhibitory Concentrations in Strain 10
Source text: as §1

S. pneumoniae SP-3561 = assay: Cross resistance antibacterial assay (MIC), strain 11; assay type: cell-based; conditions: Streptococcus pneumoniae, SP3561; S. pneumoniae SP-3561, multiple drug resistant (penicillin, macrolide-R, tetracycline etc.); read-out: Minimum Inhibitory Concentrations in Strain 11
Source text: as §1

S. pyogenes SP1-3541 = assay: Cross resistance antibacterial assay (MIC), strain 12; assay type: cell-based; conditions: Streptococcus pyogenes, SP13541; S. pyogenes SP1-3541, multiple drug resistant (MLS); read-out: Minimum Inhibitory Concentrations in Strain 12
Source text: as §1

H. influenziae Hi-3113 = assay: Cross resistance antibacterial assay (MIC), strain 13; assay type: cell-based; conditions: H. influenziae Hi-3113, B-lactamase; read-out: Minimum Inhibitory Concentrations in Strain 13
Source text: as §1
13. H. influenziae Hi-3113: B-lactamase

E. faeciaum EF4-3525 = assay: Cross resistance antibacterial assay (MIC), strain 4; conditions: read-out: Minimum Inhibitory Concentrations in Strain 4
Experimental: (§3) The compounds of the present invention were tested against an assortment of drug resistant organisms described below using standard microtitration techniques (Cohen, et. al., Antimicrob. Agents Chemother., 1985; 28:766; Heifetz, et. al., Antimicrob. Agents Chemother, 1974; 6:124). […] E. faeciaum EF4-3525: Vancomicin resitant strain. • 5. E. faeciaum EF4-3836: Multiple drug resitant strain (lineozolid, AZD2563-R, vancomicin, ampicillin, macrolide-R, quinolone-R, trimeothprim/sulfamethoxazole). • 6.

E. faeciaum EF4-3836 = assay: Cross resistance antibacterial assay (MIC), strain 5; conditions: read-out: Minimum Inhibitory Concentrations in Strain 5
Experimental: as §3

E. coli Tol C = assay: Antibacterial assay (MIC), standard microtitration, Gram negative; assay type: cell-based; conditions: for MIC: Escherichia coli, read-out: Minimum Inhibitory Concentrations E. coli Tol C
Source text: (§2) Test A—Antibacterial Assays

H. influenzae HI3542 = assay: as above; assay type: cell-based; conditions: Gram negative bacteria; for MIC: Haemophilus influenzae, HI3542, read-out: Minimum Inhibitory Concentrations H. influenzae HI3542
Source text: as §2

M. catarrhalis BC3534 = assay: as above; assay type: cell-based; conditions: Gram negative bacteria; for MIC: Moraxella catarrhalis, BC3534, read-out: Minimum Inhibitory Concentrations M. catarrhalis BC3534
Source text: as §2

E. faecalis MGH-2 = assay: Antibacterial assay (MIC), standard microtitration, Gram positive; assay type: cell-based; conditions: Gram positive bacteria; for MIC: Enterococcus faecalis, MGH2, read-out: Minimum Inhibitory Concentrations E. faecalis MGH-2
Source text: as §2

S pyogenes C203 = assay: as above; assay type: cell-based; conditions: Gram positive bacteria; for MIC: read-out: Minimum Inhibitory Concentrations S pyogenes C203
Source text: as §2

S. aureus UC-76 = assay: as above; assay type: cell-based; conditions: Gram positive bacteria; for MIC: Staphylococcus aureus, UC76, read-out: Minimum Inhibitory Concentrations S. aureus UC-76
Source text: as §2

S. pyogenes C-203 = assay: In vivo activity (mouse), median protective dose in lethal systemic infection; conditions: mice
Experimental: Test B—In Vivo Activity (Mouse)
The in vivo activity was obtained when the compounds were tested according to the procedure of Miller, et al. (Proc. Soc. Exp. Biol. Med., 1944; 57:261). The median protective dose (PD50) was determined in mice given lethal systemic infections, as depicted in Table 4.

SMILES	MIC (E. faecalis EF-13524)	MIC (E. faecalis EF-3838)	MIC (S. aureus SA-2017)	MIC (S. aureus SA-3528)	MIC (S. aureus SA-3839)	MIC (E. faeciaum EF4-3525)	MIC (E. faeciaum EF4-3836)	MIC (E. coli Tol C)	MIC (H. influenzae HI3542)	MIC (M. catarrhalis BC3534)	MIC (E. faecalis MGH-2)	MIC (S pyogenes C203)	MIC (S. aureus UC-76)	other results
CC(=O)NC[C@H]1CN(c2ccc3c(c2)CCCc2cnoc2-3)C(=O)O1 [Example 3A, (S)-N-[3-(5,6-dihydro-4H-1-oxa-2-aza-benzo[e]azulen-8-yl)-2-oxo-oxalidin-5-ylmethyl]acetamide]	0.25 µg/mL (≈ 0.732 µM)	1 µg/mL (≈ 2.93 µM)	0.5 µg/mL (≈ 1.46 µM)	48 µg/mL (≈ 141 µM)	4 µg/mL (≈ 11.7 µM)	0.5 µg/mL (≈ 1.46 µM)	1 µg/mL (≈ 2.93 µM)							MIC (S. aureus SA-3840): 4 µg/mL (≈ 11.7 µM); MIC (S. pneumoniae SP-3536): 4 µg/mL (≈ 11.7 µM); MIC (S. pneumoniae SP-3561): 0.25 µg/mL (≈ 0.732 µM); MIC (S. pyogenes SP1-3541): 0.5 µg/mL (≈ 1.46 µM); MIC (H. influenziae Hi-3113): 2 µg/mL (≈ 5.86 µM)
CC(=O)NC[C@H]1CN(c2ccc3c(c2)CCCc2cn[nH]c2-3)C(=O)O1 [Example 3, (S)-N-[2-Oxo-3-(1,4,5,6-tetrahydro-1,2-diaza-benzo[e]azulen-8-yl)oxazolidin-5-ylmethyl]acetamide]	0.25 µg/mL (≈ 0.734 µM)	0.5 µg/mL (≈ 1.47 µM)	1 µg/mL (≈ 2.94 µM)	8 µg/mL (≈ 23.5 µM)	16 µg/mL (≈ 47 µM)	0.5 µg/mL (≈ 1.47 µM)	1 µg/mL (≈ 2.94 µM)	> 64 µg/mL	2 µg/mL (≈ 5.88 µM)	2 µg/mL (≈ 5.88 µM)	0.25 µg/mL (≈ 0.734 µM)	0.125 µg/mL (≈ 0.367 µM)	0.5 µg/mL (≈ 1.47 µM)	PD50 (median protective dose) (S. pyogenes C-203; S. pyogenes C-203, oral): 6.4 mg/kg; PD50 (median protective dose) (S. pyogenes C-203; S. pyogenes C-203, subcutaneous): 2.1 mg/kg
CC(C)(C)OC(=O)NC[C@H]1CN(c2ccc3c(c2)CCCc2cn[nH]c2-3)C(=O)O1 [Example 56, (S)-[2-Oxo-3-(1,4,5,6-tetrahydro-1,2-diaza-benzo[e]azulen-8-yl)-oxazolidin-5-ylmethyl]-carbamic acid tert-butyl ester]								> 64 µg/mL	> 64 µg/mL	16 µg/mL (≈ 40.2 µM)	4 µg/mL (≈ 10 µM)	4 µg/mL (≈ 10 µM)	1 µg/mL (≈ 2.51 µM)	melting point: 85 to 100 °C
CC(=O)NC[C@H]1CN(c2ccc3c(c2)CCCc2c(-c4ccc(F)cc4)n[nH]c2-3)C(=O)O1 [Example 95, (S)-N-{3-[3-(4-Fluoro-phenyl)-1,4,5,6-tetrahydro-1,2-diaza-benzo[e]azulen-8-yl]-2-oxo-oxazolidin-5-ylmethyl}-acetamide]								> 64 µg/mL	8 µg/mL (≈ 18.4 µM)	1 µg/mL (≈ 2.3 µM)	0.5 µg/mL (≈ 1.15 µM)	0.5 µg/mL (≈ 1.15 µM)	4 µg/mL (≈ 9.21 µM)	
CC(=O)NC[C@H]1CN(c2ccc3c(c2)-c2[nH]ncc2CCC3)C(=O)O1 [Example 1, (S)-N-[2-Oxo-3-(1,4,5,6-tetrahydro-1,2-diaza-benzo[e]azulen-9-yl)oxalidin-5-ylmethyl]acetamide]														Minimum Inhibitory Concentrations E. coli Tol C (E. coli Tol C; Gram negative bacteria): >64 µg/mL; Minimum Inhibitory Concentrations H. influenzae HI3542 (H. influenzae HI3542): >64 µg/mL; Minimum Inhibitory Concentrations M. catarrhalis BC3534 (M. catarrhalis BC3534): >64 µg/mL; Minimum Inhibitory Concentrations E. faecalis MGH-2 (E. faecalis MGH-2): >64 µg/mL; Minimum Inhibitory Concentrations S pyogenes C203 (S pyogenes C203): >64 . . . μg/mL; Minimum Inhibitory Concentrations S. aureus UC-76 (S. aureus UC-76): >64 µg/mL
